Common to all, as to type: cell-based
In assay [1] the test system is C1 cells. In words: Killing of Philadelphia negative C1 acute lymphoblastic leukemia cells in culture (colony assay). To be noted: C1 Philadelphia negative ALL cells, methylcellulose colony count in 5-7 days. How it is done: C1 (at 2×10^4 cells/ml) were plated in 1 ml volumes, in the absence of exogenous growth factors, into 35 mm Petri dishes (Nunc, Gibco) containing alpha MEM (Gibco) plus 10% FCS (Cansera Rexdale, Ont.) in 0.9% (vol/vol) methylcellulose (Fluka, Switzerland). Cultures were set up at 37° C. with 5% CO2 in a humidified atmosphere. Colonies consisting of more than 20 cells were counted in 5-7 days using an inverted microscope. For further information, see Leukemia, Vol. 6, No. 1, 1992, pg. 8-17 and Nature, Vol. 379, 15 Feb. 1996.

The subject of assay [2] is Z119 cells. In words: Killing of Philadelphia positive Z119 acute lymphoblastic leukemia cells in culture (colony assay). Conditions: Z119 Philadelphia positive ALL cells, methylcellulose colony count at 7-9 days; read-out: ALL (Z 119) IC50. How it is done: Z119 cells were plated in 1 ml volumes at a density of 5×10^4 cells/ml, in the absence of exogenous growth factors, into 35 mm petri dishes (Nunc, Gibco) containing IMDM (OCI, Toronto) plus 20% FCS (Cansera Rexdale, ON.) in 0.9% (vol/vol) methylcellulose (Fluka, Switzerland) with the indicated concentration of for various test compounds described above. Cultures were set at 37° C., 5% CO2 in a humidified atmosphere. Colonies consisting of more than 20 cells were counted at 7-9 days using an inverted microscope.

For assay [3], the system named is OCI-AML-3 cells. In words: Killing of AML-3 acute myeloid leukemia cells in culture (colony assay). Conditions: Homo sapiens, methylcellulose colony count at 5-6 days. The protocol:
OCI-AML-3 cells were plated in 35 mm petri dishes (Nunc, Gibco) in 1 ml volumes at a density of 3.3×10^3 cells/ml, in the absence of exogenous growth factors, containing alpha MEM plus 30% FCS (Cansera, Rexdale Ont.), and 0.9% (vol/vol) methylcellulose (Fluka, Switzerland) and the indicated concentrations of for various test compounds described above. Cell cultures were incubated in a humidified atmosphere at 37° C. with 5% CO2. Colonies containing more than 20 cells were scored, using an inverted microscope, at 5-6 days.

Assay [4] deals with normal bone marrow cells (BFU-E). In words: Effect upon normal bone marrow differentiation in culture (CFU-GEMM assay, BFU-E colonies). Conditions: Bone marrow cell, 336 h, BFU-E colonies evaluated at 14 days, read-out: NBM (BFU-E) IC50. How it is done: The CFU-GEMM assay was performed according to Fauser and Messner (1978, Blood, 52(6) 143-8) and Messner and Fausser (1980, Blut, 41(5) 327-33) with some variations. In brief, heparinized bone marrow cells were layered over Percoll (1.077 gm/ml) (Pharmacia Fine Chemical, Piscataway N.J.) and centrifuged at 400 g at 4° C. for 10 minutes to remove neutrophils and RBCs. The fractionated BM cells at 2×10^5 cells/ml were cultured in IMDM (OCI, Toronto) containing 0.9% (vol/vol) methylcellulose supplemented with 30% FCS (Cansera Rexdale, ON.) or normal human plasma, a cocktail of cytokines containing G-CSF (10 ng/ml, Amgen), IL-3 (40 U/ml, Immunex), MGF (50 ng/ml, Immunex), Erythropoietin (2 u/ml, Epprex) or TPO (10 ng/ml, Amgen), 5×10^−5 M β-2-mercaptoethanol and the specified concentration of CR4. The culture mixture was plated in 1 ml volumes into 35 mm petri dishes and incubated at 37° C., 5% CO2 in a humidified atmosphere. All cultures were evaluated at 14 days for the number of BFU-E colonies (defined as aggregates of more than 500 hemoglobinized cells or, 3 or more erythroid subcolonies), OFU-GM colonies (defined as granulocyte or monocyte-macrophage cells or both), CFU-Meg colonies (comprising 4 or more megakaryocytes) and CFU-GEMM colonies (a mixed population comprising of all elements).

Turning to `N#C/C(=C\C=C\c1ccco1)C(=O)NCc1ccc(O)c(O)c1` [CRH-48, 2-cyano-5-furan-2-yl-penta-2E,4E-dienoic acid 3,4-dihydroxybenzylamide], the IC50 was at least 250 nM in assay [1], 250 to 500 nM in assay [2], 230 nM in assay [3] and at most 10 µM in assay [4].

As to `N#C\C(=C/C=C/C=C/c1ccc(O)c(O)c1)C(=O)NCc1ccccc1` [CRT-88, 2-Cyano-7-(3,4-dihydroxyphenyl)hepta-2E,4E,6E-trienoic acid benzyl-amide], the figures for the IC50 in assay [2] and in assay [4] were below 500 nM and 3.1 to 5.4 µM, respectively.

On to `N#C/C(=C\C(Cl)=C\c1ccccc1)C(=O)NCc1ccc(O)c(O)c1` [CRC-47, 4-chloro-2-cyano-5-phenyl-penta-2E,4Z-dienoic acid 3,4-dihydroxybenzylamide], for which the IC50 is below 125 nM in assay [2] and below 5 µM in assay [4].

Take `N#C/C(=C\c1ccc(/C=C/c2ccccc2)cc1)C(=O)NCc1ccncc1` [CRS-75, 2-cyano-N-pyridin-4-ylmethyl-3-(4-trans-styrylphenyl)-E-acrylamide]: the IC50 is at least 500 nM in assay [1], above 1000 nM in assay [2], at least 500 nM in assay [3] and above 10 µM in assay [4].

For the molecule `N#C/C(=C\C=C\c1cc(O)ccc1O)C(=O)NCc1ccccc1` [CRO-70, 2-Cyano-5-(2,5-dihydroxyphenyl)penta-2E,4E-dienoic acid benzylamide], the IC50 in assay [1] was above 500 nM; in assay [2] it was 260 nM; in assay [3], above 500 nM; in assay [4], 6.9 µM.

Consider `N#C/C(=C\C=C\c1cccnc1)C(=O)NCc1ccc(O)c(O)c1` [CRH-58, 2-cyano-5-pyridin-3-yl-penta-2E,4E-dienoic acid 3,4-dihydroxybenzylamide], for which the IC50 was above 500 nM in assay [1], 260 nM in assay [2], above 500 nM in assay [3] and 7.5 to 9.8 µM in assay [4].

Turning to `N#C/C(=C\c1ccc(/C=C/c2ccncc2)cc1)C(=O)NCc1ccncc1` [CRS-77, 2-cyano-N-pyridin-4-ylmethyl-3-[4-(2-pyridin-4-yl-trans-vinyl)phenyl]-E-acrylamide], the IC50 in assay [2] is above 1000 nM; in assay [4] it was above 10 µM.

For the molecule `N#C/C(=C\C=C\c1cccnc1)C(=O)NCc1ccccc1` [CRH-59, 2-cyano-5-pyridin-3-yl-penta-2E,4E-dienoic acid benzylamide], the IC50 in assay [2] was above 1000 nM; in assay [4], above 10 µM.

In the case of `N#C/C(=C\C=C\c1cccs1)C(=O)NCc1ccc(O)c(O)c1` [CRH-60, 2-cyano-5-thiophen-2-yl-penta-2E,4E-dienoic acid 3,4-dihydroxybenzylamide], the IC50 in assay [2] is below 500 nM; in assay [4], 7.1 µM.

As for `N#C/C(=C\c1ccc(/C=C/c2ccncc2)cc1)C(=O)NCc1ccc(O)c(O)c1` [CRS-76, 2-cyano-N-(3,4-dihydroxybenzyl)-3-[4-(2-pyridin-4-yl-trans-vinyl)-phenyl]-E-acrylamide], the half-inhibitory concentration (IC50) was above 1000 nM in assay [2] and above 10 µM in assay [4].

With `COc1cc(/C=C/C=C/C=C(\C#N)C(=O)NCc2ccc(O)c(O)c2)ccc1O` [CRT-67, 2-cyano-7-(4-hydroxy-3-methoxyphenyl)hepta-2E,4E,6E-trienoic acid 3,4-dihydroxybenzylamide], the IC50 was above 500 nM in assay [1], at most 500 nM in assay [2], above 500 nM in assay [3] and 10.2 µM in assay [4].

For the origin of these results see patent US7807719B2, “Compounds useful for modulating abnormal cell proliferation” (priority 2004, dated 2010).
